The values that follow come from patent publication US20080306124A1, “Polycyclic Oxadiazoles or I Soxazoles and Their Use as Sip Receptor Ligands” (priority 2005, published 2008).

The target in the assay is T1, S1P1 (EDG-1) receptor (Homo sapiens, UniProt P21453).
T1 construct: expressed in transfected cells
T1 sequence (P21453 whole entry): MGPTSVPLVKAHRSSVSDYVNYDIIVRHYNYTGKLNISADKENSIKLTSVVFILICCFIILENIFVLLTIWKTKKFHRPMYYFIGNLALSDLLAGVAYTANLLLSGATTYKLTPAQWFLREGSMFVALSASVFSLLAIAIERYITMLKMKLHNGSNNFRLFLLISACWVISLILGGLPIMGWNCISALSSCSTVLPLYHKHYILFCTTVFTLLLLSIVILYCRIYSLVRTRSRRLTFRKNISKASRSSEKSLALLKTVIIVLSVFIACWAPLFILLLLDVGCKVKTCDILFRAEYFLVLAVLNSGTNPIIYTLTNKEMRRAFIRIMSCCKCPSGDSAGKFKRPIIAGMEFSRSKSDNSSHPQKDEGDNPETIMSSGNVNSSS
As to the kind of experiment: S1P1 (EDG-1) GTP [γ-35S] binding assay, membranes from CHO cells. The assay is classed as biochemical. The conditions noted are these: membranes of CHO cells expressing human EDG-1. As to the method: A. In vitro: GPCR Activation Assay Measuring GTP [γ-^35S] Binding to Membranes Prepared from CHO Cells Expressing Human EDG Receptors
S1P1 (EDG-1) GTP [γ-^35S] binding assay: Homogenized membranes are prepared from CHO cell clones stably expressing a human EDG-1 N-terminal c-myc tag. Cells are grown in suspension in two 850 cm^2 roller bottles for three or fours days before harvesting. The cells are centrifuged down, washed once with cold PBS, and resuspended in ≦20 ml of Buffer A (20 mM HEPES, pH 7.4, […], EDTA-free complete protease inhibitor cocktail [1 tablet/25 ml]). The cell suspension is homogenized on ice, using a Polytron homogenizer at 30000 rpm at three intervals of 15 seconds each. The homogenate is first centrifuged at 2000 rpm on a tabletop low speed centrifuge for 10 minutes. The supernatant, after passing through a cell strainer, is then re-centrifuged at 50,000×g for 25 minutes at 4° C. The pellet is resuspended into buffer B (15% glycerol, 20 mM HEPES, pH 7.4, 0.1 mM EDTA, EDTA-free complete protease inhibitor cocktail [1 tablet/10 ml]). Protein concentration of the preparation is determined using the BCA Protein Assay kit (Pierce) using BSA as standard. The membranes are aliquoted and kept frozen at −80° C.
Solutions of test compounds ranging from 10 mM to 0.01 nM are prepared in DMSO. S1P is diluted in 4% BSA solution as positive controls. The desired amount of membrane preparation is diluted with ice-cold assay buffer (20 mM HEPES, pH 7.4, 100 mM NaCl, 10 mM MgCl2, 0.1% Fatty acid-free BSA, 5 μM GDP) and vortexed well. 2 μl or less of compound is distributed into each well of a round-bottom 96-well polystyrene assay plate, followed by addition of 100 µl of diluted membranes ([…]/well) and kept on ice until the addition of hot GTPγS. [^35S]-GTPγS is diluted 1:1000 (v/v) with cold assay buffer and 100 μl is added into each well. The reaction is carried out at room temperature for 90 minutes before the membranes are harvested onto Perkin-Elmer Unifilter® GF/B-96 filter plate using a Packard Filtermate Harvester. After several washes with wash buffer (20 mM HEPES, pH 7.4, 100 mM NaCl, 10 mM MgCl2), and a rinse with 95% ethanol, the filter is dried in a 37° C. oven for 30 minutes. MicroScint-20 is added and the plate sealed for scintillation counting on TopCount. EC50 values are obtained by fitting the GTP [γ-^35S] binding curves (raw data) with the dose response curve-fitting tool of GraphPad Prism. Six or twelve different concentrations are used to generate a concentration response curve (using three data points per concentration).
A word on the EC50: it is the concentration giving half of the maximal effect. A higher EC50 goes with a need for much substance. As to `O=C(O)CCNS(=O)(=O)c1ccc(-c2noc(-c3ccc(Oc4cccc(F)c4)c(C(F)(F)F)c3)n2)cc1` [Example 54], the 50% effective concentration (EC50) was under 1 nM.
To `CCc1cc(-c2noc(-c3ccc(C4CCCCC4)c(C(F)(F)F)c3)n2)ccc1S(N)(=O)=O` [Example 196, 4-[5-(4-Cyclohexyl-3-trifluoromethyl-phenyl)-[1,2,4]oxadiazol-3-yl]-2-ethyl-benzenesulfonamide] belongs under 1 nM; to `NS(=O)(=O)c1ccc(-c2noc(-c3ccc(OC4CCCC4)c(C(F)(F)F)c3)n2)cc1` [Example 145], under 1 nM; to `CCc1ccccc1-c1ccc(-c2nc(-c3ccc(S(=O)(=O)NCC(=O)O)cc3)no2)cc1C(F)(F)F` [Example 45], under 1 nM.
On to `CCc1cc(-c2noc(-c3ccc(-c4ccccc4F)c(C(F)(F)F)c3)n2)ccc1S(N)(=O)=O` [Example 194, 2-Ethyl-4-[5-(2′-fluoro-2-trifluoromethyl-biphenyl-4-yl)-[1,2,4]oxadiazol-3-yl]-benzenesulfonamide], for which the EC50 was under 1 nM.
